# Data published in US20240165152A1, “COMPOSITIONS AND METHODS FOR ACTIVATING NK CELLS” (The Regents of the University of California, priority 2017, published 2024).
# What was measured:
# OSCSCs = test: Cell death (PI staining) of OSCSCs differentiated with NK supernatants after chemotherapeutic drugs; assay type: cell-based, human
# Experimental: FIG. 67A-FIG. 67B show CDDP or Paclitaxel with and without NAC induce significant cell death in OSCSCs differentiated with NK-supernatants and not in poorly-differentiated tumors. Highly purified NK cells were treated with the combination of IL-2 (1000 U/mL) and anti-CD16 mAb ([…]) for 18 hours, after which the NK supernatants were added to OSCSCs in the presence of anti-TNF-a (1:100) and anti-IFN-g (1:100) for a period of 5 days. Thereafter, OSCSCs were detached and treated with/without Cisplatin for 18-24 hours. The viability of OSCSCs was then determined using PI staining and flow cytometric analysis. One of 3 representative experiments is shown in this figure (FIG. 67A). OSCSCs were treated with the supernatants from NK cells as described in FIG. 67A. Afterwards, tumors were detached and treated with/without NAC ([…]) for 24 hours, followed by treatment with Paclitaxel for 18-24 hours. OSCSCs viability was determined by PI staining and flow cytometric analysis. One of 3 representative experiments is shown in this figure (FIG. 67B).
# Staining was performed by labeling the cells with antibodies or propidium iodide, as described previously. The cells were washed twice with ice-cold PBS containing 1% BSA. Predetermined optimal concentrations of specific human monoclonal antibodies were added to 1×10^4 cells in 50 pl of cold-BSA and cells were incubated on ice for 30 min. Thereafter cells were washed in cold PBS-BSA and brought to 500 pl with PBS-BSA. For cell death assay 1×10^4 cells in 50 pl of cold-BSA were stained with 8 µg/ml propidium iodide and cells were incubated on ice for 10 min, and brought to 500 pl with PBS-BSA. Flow cytometry analysis was performed using Beckman 485 Coulter Epics XL cytometer (Brea, CA) and results were analyzed in FlowJo vX software (Ashland, OR).
# NK cells were treated with a combination of anti-CD16 monoclonal antibody (3 pg/mL) and IL-2 (1,000 U/mL) for 18 hours before supernatants were removed and used for differentiation experiments. The amounts of IFN-y produced by activated NK cells were measured with IFN-γ ELISA (Biolegend, CA, USA). […]
# OSCCs = test: Cell death of OSCCs after chemotherapeutic drugs; assay type: cell-based, human; conditions: patient-derived differentiated oral tumor
SMILES,cell death of OSCSCs differentiated with NK supernatants (OSCSCs),cell death of OSCCs (OSCCs)
"[NH2][Pt]([NH2])([Cl])[Cl] [CDDP, Cisplatin]",significant susceptibility,higher cell death
CC(=O)N[C@@H](CS)C(=O)O [NAC],significantly increased,
CC(=O)O[C@H]1C(=O)[C@@]2(C)[C@H]([C@H](OC(=O)c3ccccc3)[C@]3(O)C[C@H](OC(=O)[C@H](O)[C@@H](NC(=O)c4ccccc4)c4ccccc4)C(C)=C1C3(C)C)[C@]1(OC(C)=O)CO[C@@H]1C[C@@H]2O [paclitaxel],higher cell death,
